From patent publication US8912121B2, “Herbicidal compositions comprising 4-amino-3-chloro-5-fluoro-6-(4-chloro-2-fluoro-3-methoxyphenyl)pyridine-2-carboxylic acid or a derivative thereof and certain PS II inhibitors” (Dow Agrosciences LLC, priority 2012, dated 2014)

System: CYPRO (Cyperus rotundus, purple nutsedge)
Assay: In-water applied mixtures, transplanted paddy rice, greenhouse
Type: in vivo, Cyperus rotundus L.
Conditions: 19 DAA
Protocol: Weed seeds or nutlets of the desired test plant species were planted in puddled soil (mud) prepared by mixing a shredded, non-sterilized mineral soil (50.5 percent silt, 25.5 percent clay, and 24 percent sand, with a pH of about 7.6 and an organic matter content of about 2.9 percent) and water at a 1:1 volumetric ratio. The prepared mud was dispensed in 365 mL aliquots into 16-ounce (oz.) non-perforated plastic pots with a surface area of 86.59 square centimeters (cm^2) leaving a headspace of 3 centimeters (cm) in each pot Mud was allowed to dry overnight prior to planting or transplanting. Rice seeds were planted in Sun Gro MetroMix® 306 planting mixture, which typically has a pH of 6.0 to 6.8 and an organic matter content of about 30 percent, in plastic plug trays. Seedlings at the second or third leaf stage of growth were transplanted into 840 mL of mud contained in 32-oz. non-perforated plastic pots with a surface area of 86.59 cm^2 4 days prior to herbicide application. The paddy was created by filling the headspace of the pots with 2.5 to 3 cm of water. When required to ensure good germination and healthy plants, a fungicide treatment and/or other chemical or physical treatment was applied. The plants were grown for 4-22 days in a greenhouse with an approximate 14 h photoperiod which was maintained at about 29° C during the day and 26° C. during the night. Nutrients were added as Osmocote® (19:6:12, N:P:K+ minor nutrients) at 2 g per 16-oz. pot and 4 g per 32-oz. pot. Water was added on a regular basis to maintain the paddy flood, and supplemental lighting was provided with overhead metal halide 1000-Watt lamps as necessary. The plants were employed for testing when they reached the first through fourth true leaf stage.
Treatments consisted of the acid or esters of 4-amino-3-chloro-5-fluoro-6-(4-chloro-2-fluoro-3-methoxy-phenyl)pyridine-2-carboxylic acid (compound A) each formulated as an SC (suspension concentrate) and various herbicidal components alone and in combination. Forms of compound A were applied on an acid equivalent basis.
Other herbicidal components were applied on an active ingredient basis and included photosystem II (PSII)-inhibits propanil formulated as […] bentazon-sodium formulated as Basagran®, and simetryne (technical grade material).
Treatment requirements for each compound or herbicidal component were calculated based upon the rates being tested, the concentration of active ingredient or acid equivalent in the formulation, an application volume of 2 mL per component per pot, and an application area of 86.59 cm^2 per pot.
For formulated compounds, a measured amount was placed in an individual 100 or 200 mL glass vial and was dissolved in a volume of 1.25% (v/v) Agri-Dex® crop oil concentrate to obtain application solutions.
For technical grade compounds, a weighed amount was placed in an individual 100 to 200 mL glass vial and was dissolved in a volume of acetone to obtain concentrated stock solutions. […] The concentrated stock solutions obtained were diluted with an equivalent volume of an aqueous mixture containing 2.5% (v/v) crop oil concentrate so that the final application solutions contained 1.25% (v/v) crop oil concentrate.
Applications were made by injecting with a pipetter appropriate amounts of the application solutions, individually and sequentially, into the aqueous layer of the paddy. Control plants were treated in the same manner with the solvent blank. Applications were made so that all treated plant material received the same concentrations of acetone and crop oil concentrate.
The treated plants and control plants were placed in a greenhouse as described above and water was added as needed to maintain a paddy flood. After approximately 3 weeks the condition of the test plants as compared with that of the untreated plants was determined visually and scored on a scale of 0 to 100 percent where 0 corresponds to no injury or growth inhibition and 100 corresponds to complete kill. […]

In the case of COc1c(Cl)ccc(-c2nc(C(=O)OCc3ccccc3)c(Cl)c(N)c2F)c1F [Compound A Benzyl Ester, benzyl ester of 4-amino-3-chloro-5-fluoro-6-(4-chloro-2-fluoro-3-methoxy-phenyl)pyridine-2-carboxylic acid], the “Visual Weed Control (%) Obs” value (8 g ae/ha) is reported as 50%, the “Visual Weed Control (%) Obs” value (16 g ae/ha) is reported as 85% and the “Visual Weed Control (%) Obs” value (32 g ae/ha) is reported as 90%.
